Experimental data reported in US20240122922A1, “Methods Of Treating Cancer With Transmembrane Protein 16F (TMEM16F) Inhibitors” (Institute For Cancer Research d/b/a The Research Institute …, priority 2022, published 2024).
Entries after “also recorded” stand apart in the source; their conditions may differ.

B1: annexin V: recombinant label-free Annexin-V (#ab157342, Abcam) masking cell surface phosphatidylserine (protein, UniProt P08758 2-320, looked up)
Annexin A5: AQVLRGTVTDFPGFDERADAETLRKAMKGLGTDEESILTLLTSRSNAQRQEISAAFKTLFGRDLLDDLKSELTGKFEKLIVALMKPSRLYDAYELKHALKGAGTNEKVLTEIIASRTPEELRAIKQVYEEEYGSSLEDDVVGDTSGYYQRMLVVLLQANRDPDAGIDEAQVEQDAQALFQAGELKWGTDEEKFITIFGTRSVSHLRKVFDKYMTISGFQIEETIDRETSGNLEQLLLAVVKSIRSIPAYLAETLYYAMKGAGTDDHTLIRVMVSRSEIDLFNIRKEFRKNFATSLYSMIKGDTSGDYKKALLLLCGEDD

Experiments:
[1] = test system: KPC3 syngeneic pancreatic tumor grafts; assay: Treatment of orthotopic syngeneic KPC3 pancreatic tumors with oral ANO6 inhibitors; format: in vivo, C57Bl/6J mice; details: oral gavage 5 days/week for 3 weeks; niclosamide 150 mg/kg, clofazimine 50 mg/kg; vs vehicle, p<0.001
Experimental: (§1) Syngeneic 5×10^5 KPC3 cells were orthotopically injected to the tail of pancreas of anesthetized C57Bl/6J mice. Treatment with ANO6 inhibitors niclosamide or clofazimine commenced on 2 days post-implantation: niclosamide (150 mg/kg of mouse body weight, Cayman #10649), clofazimine (50 mg/kg, MedChem Express), or corn oil (50 mg/kg, Sigma #C8267) as vehicle were given by oral gavages 5 days/week for 3 weeks. Mice were kept under defined-flora pathogen-free conditions. Mice of both genders, equally distributed, were used for the experiments.

DsRed-tagged KPC3 tumors = assay: In vivo fluorescent LDL (BODIPY-cholesterol) imaging by multiphoton microscopy; design: species or system mice
Experimental: as §1

[2] = test system: KPCN349 cells co-cultured with CAFs; assay: Trogocytosis assay in vitro by flow cytometry (CAF membrane uptake by PDAC cells); format: cell-based, murine; details: 100 nM, CAFs pre-treated 2 hours and maintained in co-culture, vs vehicle, p<0.05
Experimental: To label cellular membranes, pairs of lipophilic fluorescent dyes were used according to the manufacturer's instructions in the following combinations: 1) adherent CAFs were stained 1 μM PKH67 (Sigma-Aldrich), Panc-1 were stained in suspension with 10 μM CellTracker™ orange CMTMR (Thermo Fisher Scientific); 2) CAFs labeled with 0.5 μM BODIPY-cholesterol (Topfluor Cholesterol, #DO-016545, Avanti Polar Lipids) dissolved in 0.1 mM methyl-b-cyclodextrin (#C4555, Sigma) with 2 μM cholesterol (#C8667, Sigma-Aldrich) in MEM media at 37° C. for 30 minutes in suspension; murine or human (Panc-1) PDAC cells were stained in suspension with CPD670 (#65-0840-85, Thermo Fisher Scientific). After labeling, CAFs were co-incubated for indicated time intervals with PDAC cells in 12-well culture plates at ratio of 2:1 in half DMEM media. Co-cultures of CAFs and PDAC cells for 3 minutes on ice were used as negative controls. In experiments assessing the effect of extracellular calcium on trogocytoisis, cells were co-cultured in Phosphate Buffered Saline (PBS) containing calcium and magnesium (D8662, Sigma-Aldrich) or in PBS without calcium and magnesium (D8537, Sigma-Aldrich). After co-cultures, cells were collected and pelleted by centrifugation (5 minutes, 1500 rpm), resuspended in 10% formalin (Sigma) for 10 minutes at RT, washed and re-suspended in PBS/1% BSA. Trogocytosis was measured as the acquisition of CAF-specific fluorescence in PDAC cells by flow cytometry on MACSQuant® VYB Flow Cytometer (Miltenyi Biotec) or FACScan analyzer (BD Biosciences). Analysis of dual staining was done using FlowJo software (10.8.1, BD Biosciences). Live cells were gated based on FSC/SSC parameters, then single cells were gated based on SSC-A/SSC-H.
For interference with trogocytosis, CAFs were pre-treated prior to co-cultures for 2 hours with recombinant label-free 100 nM Annexin-V (#ab157342, Abcam) or 100 nM Zn-DPA (Molecular Targeting Technologies) and subsequently maintained in co-cultures at the same concentrations.

Molecule | weights of orthotopic syngeneic pancreatic tumors [1] | accumulation of intratumoral vesicles containing BODIPY-cholesterol (DsRed-tagged KPC3 tumors; 19 hours post injection, niclosamide vs vehicle) | accumulation of BODIPY-cholesterol from intravenously administered LDL in DsRed-tagged KPC3 cancer cells (intratumoral to peri-tumoral fluorescence) (DsRed-tagged KPC3 tumors; niclosamide 150 mg/kg/day, 10, 16 and 19 hours post injection, vehicle tumors showed 6-fold enrichment at 16 hours) | uptake of BODIPY-labeled CAF membranes by KPCN349 cells [2] | uptake of BODIPY-labeled CAF membranes by KPCN349 cells ([2]; listed as bis-Zn-dipicolylamine)
O=C(Nc1ccc([N+](=O)[O-])cc1Cl)c1cc(Cl)ccc1O [niclosamide] | significant reduction of tumor weights | dramatically reduced | suppressed accumulation |  | 
[Zn].c1ccc(CNCc2ccccn2)nc1 [Zn-DPA, zinc-dipicolylamine] |  |  |  | significantly reduced the uptake | antagonizes uptake
CC(C)/N=c1\cc2n(-c3ccc(Cl)cc3)c3ccccc3nc-2cc1Nc1ccc(Cl)cc1 [clofazimine] | significant reduction of tumor weights |  |  |  | 
B1 |  |  |  | significantly reduced the uptake; also recorded: antagonizes uptake | 
